The test system of one data set is HIV-1 (IIIB). Put plainly: microbe, parasite or virus in culture. The class given is cell-based. The settings on record: read-out: MT4 EC50.
A further data set in a line: in vitro. The settings on record: human; for CC50 at 5 days: uninfected MT-4 cells.
The next data set in a line: physchem. The settings on record: FaSSIF, 23 °C, thermodynamic from solid.
[1] abbreviates: Human immunodeficiency virus 1, MT4, 120 h, HIV-1 (IIIB) replication in MT-4 cells, 5 days, Cell Titer Glo.

The values below come from US20250120989A1, “BRIDGED TRICYCLIC CARBAMOYLPYRIDONE COMPOUNDS AND USES THEREOF” (priority 2023, published 2025).

Values after ≈ are worked out from the molar mass of the structure shown. Read-outs that look alike come from different tables or passages of the source.

The EC50 is the concentration at which the effect is half-maximal. By thermodynamic solubility is commonly meant solubility found after equilibrating the solid with the medium.

With `CC1=NO[C@@]2(CC[C@H](C)N3C[C@H]2n2cc(C(=O)NCc4ccc(F)cc4F)c(=O)c(OCOC(=O)O[C@H](C)COP(=O)(O)O)c2C3=O)C1` [Compound 18, (((3′S,5S,7′R)-10′-((2,4-difluorobenzyl)carbamoyl)-3,3′-dimethyl-1′,11′-dioxo-1′,4′,5′,11′-tetrahydro-3′H,4H,7′H-spiro[isoxazole-5,6′-[2,7]methanopyrido[1,2-a][1,4]diazonin]-12′-yl)oxy)methyl ((R)-1-(phosphonooxy)propan-2-yl) carbonate], the EC50 in the data set with HIV-1 (IIIB) (setting [1]) was 0.00227 µM. The same compound registered a CC50 at 5 days in the data set “in vitro” of 12.1 µM.
Turning to `CC1=NO[C@@]2(CC[C@H](C)N3C[C@H]2n2cc(C(=O)NCc4ccc(F)cc4F)c(=O)c(OCOC(=O)OC[C@@H](C)COP(=O)(O)O)c2C3=O)C1` [Compound 70, (((3′S,5S,7′R)-10′-((2,4-difluorobenzyl)carbamoyl)-3,3′-dimethyl-1′,11′-dioxo-1′,4′,5′,11′-tetrahydro-3′H,4H,7′H-spiro[isoxazole-5,6′-[2,7]methanopyrido[1,2-a][1,4]diazonin]-12′-yl)oxy)methyl ((R)-2-methyl-3-(phosphonooxy)propyl) carbonate], in the data set on HIV-1 (IIIB) (setting [1]), the EC50 came to 0.00286 µM. In the data set “in vitro”, the CC50 at 5 days is 15.3 µM.
As to `CC1=NO[C@@]2(CC[C@H](C)N3C[C@H]2n2cc(C(=O)NCc4ccc(F)cc4F)c(=O)c(OC(=O)C(C)(C)CCN(CC(=O)O)C(=O)OCOP(=O)(O)O)c2C3=O)C1` [Compound 2, N-(4-(((3′S,5S,7′R)-10′-((2,4-difluorobenzyl)carbamoyl)-3,3′-dimethyl-1′,11′-dioxo-1′,4′,5′,11′-tetrahydro-3′H,4H,7′H-spiro[isoxazole-5,6′-[2,7]methanopyrido[1,2-a][1,4]diazonin]-12′-yl)oxy)-3,3-dimethyl-4-oxobutyl)-N-(((phosphonooxy)methoxy)carbonyl)glycine], the EC50 in the data set with HIV-1 (IIIB) (setting [1]) worked out at 0.00137 µM. Moreover, in the data set “in vitro”, the CC50 at 5 days was found to be 12.3 µM.
Take `CC1=NO[C@@]2(CC[C@H](C)N3C[C@H]2n2cc(C(=O)NCc4ccc(F)cc4F)c(=O)c(OC(=O)OCCOP(=O)(O)O)c2C3=O)C1` [Compound 6, (3′S,5S,7′R)-10′-((2,4-difluorobenzyl)carbamoyl)-3,3′-dimethyl-1′,11′-dioxo-1′,4′,5′,11′-tetrahydro-3′H,4H,7′H-spiro[isoxazole-5,6′-[2,7]methanopyrido[1,2-a][1,4]diazonin]-12′-yl (2-(phosphonooxy)ethyl) carbonate]: the EC50 in the data set with HIV-1 (IIIB) (Human immunodeficiency virus 1, IIIB, MT4, 120 h) is 0.00209 µM. Besides, the CC50 in “in vitro” came to 15.2 µM.
`COC1=NO[C@@]2(CC[C@H](C)N3C[C@H]2n2cc(C(=O)NCc4ccc(F)cc4F)c(=O)c(OCOP(=O)(O)O)c2C3=O)C1` [Compound 1, (((3′S,5S,7′R)-10′-((2,4-difluorobenzyl)carbamoyl)-3-methoxy-3′-methyl-1′,11′-dioxo-1′,4′,5′,11′-tetrahydro-3′H,4H,7′H-spiro[isoxazole-5,6′-[2,7]methanopyrido[1,2-a][1,4]diazonin]-12′-yl)oxy)methyl dihydrogen phosphate]: in the data set on HIV-1 (IIIB) (setting [1]), the EC50 is 0.00177 µM. In “in vitro”, this compound showed a CC50 at 5 days of 15.4 µM.
Compound `CC1=NO[C@@]2(CC[C@H](C)N3C[C@H]2n2cc(C(=O)NCc4ccc(F)cc4F)c(=O)c(OCOC(=O)OC(C)C(C)(C)OP(=O)(O)O)c2C3=O)C1` (stereo partly drawn) [Compound 56, (((3′S,5S,7′R)-10′-((2,4-difluorobenzyl)carbamoyl)-3,3′-dimethyl-1′,11′-dioxo-1′,4′,5′,11′-tetrahydro-3′H,4H,7′H-spiro[isoxazole-5,6′-[2,7]methanopyrido[1,2-a][1,4]diazonin]-12′-yl)oxy)methyl (3-methyl-3-(phosphonooxy)butan-2-yl) carbonate] had a thermodynamic solubility at 24 h in “physchem” of 4240 µg/mL (≈ 5.84 mM).
As for `CC1=NO[C@@]2(CC[C@H](C)N3C[C@H]2n2cc(C(=O)NCc4ccc(F)cc4F)c(=O)c(OC(=O)OCC[N+](C)(C)C)c2C3=O)C1` [Compound 16, 2-(((((3′S,5S,7′R)-10′-((2,4-difluorobenzyl)carbamoyl)-3,3′-dimethyl-1′,11′-dioxo-1′,4′,5′,11′-tetrahydro-3′H,4H,7′H-spiro[isoxazole-5,6′-[2,7]methanopyrido[1,2-a][1,4]diazonin]-12′-yl)oxy)carbonyl)oxy)-N,N,N-trimethylethan-1-aminium trifluoroacetic acid], the solubility (thermodynamic) at 24 h in the data set “physchem” came to 2230 µg/mL. In “in vitro”, this compound displayed a CC50 at 5 days of 14.1 µM.
`CC1=NO[C@@]2(CC[C@H](C)N3C[C@H]2n2cc(C(=O)NCc4ccc(F)cc4F)c(=O)c(OCOC(=O)N(CCOP(=O)(O)O)CC(=O)O)c2C3=O)C1` [Compound 46, N-(((((3′S,5S,7′R)-10′-((2,4-difluorobenzyl)carbamoyl)-3,3′-dimethyl-1′,11′-dioxo-1′,4′,5′,11′-tetrahydro-3′H,4H,7′H-spiro[isoxazole-5,6′-[2,7]methanopyrido[1,2-a][1,4]diazonin]-12′-yl)oxy)methoxy)carbonyl)-N-(2-(phosphonooxy)ethyl)glycine] had a solubility (thermodynamic) at 24 h in the data set “physchem” of 4980 µg/mL (≈ 6.72 mM). Moreover, in the data set “in vitro”, the CC50 at 5 days is 50 µM.
In the case of `CC1=NO[C@@]2(CC[C@H](C)N3C[C@H]2n2cc(C(=O)NCc4ccc(F)cc4F)c(=O)c(OC(C)OC(=O)OCCOP(=O)(O)O)c2C3=O)C1` (stereo partly drawn) [Compound 5, 1-(((3′S,5S,7′R)-10′-((2,4-difluorobenzyl)carbamoyl)-3,3′-dimethyl-1′,11′-dioxo-1′,4′,5′,11′-tetrahydro-3′H,4H,7′H-spiro[isoxazole-5,6′-[2,7]methanopyrido[1,2-a][1,4]diazonin]-12′-yl)oxy)ethyl (2-(phosphonooxy)ethyl) carbonate], the EC50 with HIV-1 (IIIB) (setting [1]) worked out at 0.00196 µM. The compound also came in with a CC50 at 5 days in the data set “in vitro” of 10.6 µM.
`COC1=NO[C@@]2(CC[C@H](C)N3C[C@H]2n2cc(C(=O)NCc4ccc(F)cc4F)c(=O)c(OCOC(=O)OC[C@@H](C)OP(=O)(O)O)c2C3=O)C1` [Compound 53, (((3′S,5S,7′R)-10′-((2,4-difluorobenzyl)carbamoyl)-3-methoxy-3′-methyl-1′,11′-dioxo-1′,4′,5′,11′-tetrahydro-3′H,4H,7′H-spiro[isoxazole-5,6′-[2,7]methanopyrido[1,2-a][1,4]diazonin]-12′-yl)oxy)methyl ((R)-2-(phosphonooxy)propyl) carbonate]: the half-maximal effective concentration (EC50) with HIV-1 (IIIB) (setting [1]) was determined as 0.00196 µM. The compound also displayed a CC50 at 5 days in “in vitro” of 15.2 µM.
`CC1=NO[C@@]2(CC[C@H](C)N3C[C@H]2n2cc(C(=O)NCc4ccc(F)cc4F)c(=O)c(OCOC(=O)C4(CCN(CC(=O)O)C(=O)OCOP(=O)(O)O)CC4)c2C3=O)C1` [Compound 44, N-(2-(1-(((((3′S,5S,7′R)-10′-((2,4-difluorobenzyl)carbamoyl)-3,3′-dimethyl-1′,11′-dioxo-1′,4′,5′,11′-tetrahydro-3′H,4H,7′H-spiro[isoxazole-5,6′-[2,7]methanopyrido[1,2-a][1,4]diazonin]-12′-yl)oxy)methoxy)carbonyl)cyclopropyl)ethyl)-N-(((phosphonooxy)methoxy)carbonyl)glycine]: the EC50 with HIV-1 (IIIB) (setting [1]) amounted to 0.00141 µM. Further, in the data set “in vitro”, the CC50 at 5 days was found to be 11.1 µM.
`CC1=NO[C@@]2(CC[C@H](C)N3C[C@H]2n2cc(C(=O)NCc4ccc(F)cc4F)c(=O)c(OCOC(=O)N(C)CC(=O)O)c2C3=O)C1` [Compound 45, N-(((((3′S,5S,7′R)-10′-((2,4-difluorobenzyl)carbamoyl)-3,3′-dimethyl-1′,11′-dioxo-1′,4′,5′,11′-tetrahydro-3′H,4H,7′H-spiro[isoxazole-5,6′-[2,7]methanopyrido[1,2-a][1,4]diazonin]-12′-yl)oxy)methoxy)carbonyl)-N-methylglycine] had a CC50 at 5 days in “in vitro” of 50 µM.
As for `CC1=NO[C@@]2(CC[C@H](C)N3C[C@H]2n2cc(C(=O)NCc4ccc(F)cc4F)c(=O)c(OCOC(=O)O[C@@H](C)C[C@H](C)OP(=O)(O)O)c2C3=O)C1` [Compound 30, (((3′S,5S,7′R)-10′-((2,4-difluorobenzyl)carbamoyl)-3,3′-dimethyl-1′,11′-dioxo-1′,4′,5′,11′-tetrahydro-3′H,4H,7′H-spiro[isoxazole-5,6′-[2,7]methanopyrido[1,2-a][1,4]diazonin]-12′-yl)oxy)methyl ((2S,4S)-4-(phosphonooxy)pentan-2-yl) carbonate], the EC50 with HIV-1 (IIIB) (setting [1]) worked out at 0.00272 µM. This compound had a CC50 at 5 days in the data set “in vitro” of 10.3 µM.
In “physchem”, `CC1=NO[C@@]2(CC[C@H](C)N3C[C@H]2n2cc(C(=O)NCc4ccc(F)cc4F)c(=O)c(OCOC(=O)OC(C)(C)C(C)OP(=O)(O)O)c2C3=O)C1` (stereo partly drawn) [Compound 55, (((3′S,5S,7′R)-10′-((2,4-difluorobenzyl)carbamoyl)-3,3′-dimethyl-1′,11′-dioxo-1′,4′,5′,11′-tetrahydro-3′H,4H,7′H-spiro[isoxazole-5,6′-[2,7]methanopyrido[1,2-a][1,4]diazonin]-12′-yl)oxy)methyl (2-methyl-3-(phosphonooxy)butan-2-yl) carbonate] returned a solubility (thermodynamic) at 24 h of 4600 µg/mL (≈ 6.33 mM).
For `COC1=NO[C@@]2(CC[C@H](C)N3C[C@H]2n2cc(C(=O)NCc4ccc(F)cc4F)c(=O)c(OCOC(=O)OC[C@@H](C)COP(=O)(O)O)c2C3=O)C1` [Compound 71, (((3′S,5S,7′R)-10′-((2,4-difluorobenzyl)carbamoyl)-3-methoxy-3′-methyl-1′,11′-dioxo-1′,4′,5′,11′-tetrahydro-3′H,4H,7′H-spiro[isoxazole-5,6′-[2,7]methanopyrido[1,2-a][1,4]diazonin]-12′-yl)oxy)methyl ((R)-2-methyl-3-(phosphonooxy)propyl) carbonate], the EC50 in the data set on HIV-1 (IIIB) (setting [1]) was determined as 0.00504 µM. In addition, the CC50 at 5 days in the data set “in vitro” was 21.3 µM.
Turning to `CC1=NO[C@@]2(CC[C@H](C)N3C[C@H]2n2cc(C(=O)NCc4ccc(F)cc4F)c(=O)c(OCOC(=O)CCCCOP(=O)(O)O)c2C3=O)C1` [Compound 20, (((3′S,5S,7′R)-10′-((2,4-difluorobenzyl)carbamoyl)-3,3′-dimethyl-1′,11′-dioxo-1′,4′,5′,11′-tetrahydro-3′H,4H,7′H-spiro[isoxazole-5,6′-[2,7]methanopyrido[1,2-a][1,4]diazonin]-12′-yl)oxy)methyl 5-(phosphonooxy)pentanoate], the EC50 with HIV-1 (IIIB) (setting [1]) amounted to 0.00237 µM. In “in vitro”, this compound displayed a CC50 at 5 days of 20.4 µM.
